This is an account of results in patent US20100093538A1, “Pseudomonas Bacterium” (priority 2008, published 2010).

For experiment [1], the system named is R. solani. The format is cell-based. To be noted: bioautography, Si gel scraped into agar plates inoculated with R. solani.
The test system of experiment [2] is germinating lettuce seeds. In words: Lettuce seed bioassay of EtOAC extracts of cell-free culture filtrates. The settings on record: IAA at 1 μg/ml.

Each structure is given as a SMILES string.

For the compound `O=[N+]([O-])c1c(Cl)cccc1-c1c[nH]cc1Cl` [PRN, 3-chloro-4-[2′ nitro-3′-chlorophenyl]pyrrole], the Fungal inhibition entry in experiment [1] is listed as “Rhizoctonia”.

For `CC(=O)c1c(O)cc(O)c(C(C)=O)c1O` [DAPG, 2,4-diacetylphloroglucinol], the Fungal inhibition entry in experiment [1] is reported as “Rhizoctonia”. Take `O=C(O)Cc1c[nH]c2ccccc12` [IAA, indole-3-acetic acid]: in experiment [2], the “Effect on germination of lettuce seeds” value was “inhibits the germination of lettuce seeds”.
